Data reported in the supplement of paper PMC10307832.

Experiments:
Assay in all cases: relative viability (nuclei count vs DMSO), 5 days (fraction); higher = more cells survive
kb NB 142-70 = compound: C1CSC2=C(C(=O)N1)SC3=C2C=C(C=C3)O [kb NB 142-70]
Method in brief: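 Lung cancer cell lines in 1536-well plates were exposed by pinning to five library-drug doses (not always all listed) √10 apart, following an overnight hold at 37 °C. MetaXpress counted Hoechst-stained nuclei from 4× images taken after 5 days without medium change. Viability is the median ratio of treated-well to vehicle-well nuclei across plates. Plates required control CV below 25% and at least one doubling.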

kb NB 142-70 + Alpelisib = compound: C1CSC2=C(C(=O)N1)SC3=C2C=C(C=C3)O [kb NB 142-70] + Cc1nc(NC(=O)N2CCC[C@H]2C(N)=O)sc1-c1ccnc(C(C)(C)C(F)(F)F)c1 [Alpelisib] (partner 2 µM)
Method in brief: (§1)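 Relative viability divides the nuclei count in treated wells by that in vehicle wells. Lung cancer cell lines were seeded in 1536-well plates, dosed by pin tool the next day, and fixed and stained after 5 days in one step with final 0.05% Triton X-100, 1% formaldehyde and 1 ug/ml Hoechst. Dosing was a single drug or a fixed anchor-drug dose plus five library-drug doses (not always all listed) in √10 steps, and values are medians of duplicate plates imaged at 4×.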

[1] = compound: NCC(=O)Nc1ccc(-n2nc(C(F)(F)F)cc2-c2ccc3c(ccc4ccccc43)c2)cc1 + COc1cc2c(Oc3ccc(NC(=O)C4(C(=O)Nc5ccc(F)cc5)CC4)cc3F)ccnc2cc1OCCCN1CCOCC1 [Foretinib] (partner 0.25 µM)
Method in brief: as §1

[2] = compound: NCC(=O)Nc1ccc(-n2nc(C(F)(F)F)cc2-c2ccc3c(ccc4ccccc43)c2)cc1 + C[C@@H](Oc1cc(-c2cnn(C3CCNCC3)c2)cnc1N)c1c(Cl)ccc(F)c1Cl [Crizotinib] (partner 1 µM)
Method in brief: as §1

| Cell Line | relative viability (kb NB 142-70; 0.1 µM) | relative viability (kb NB 142-70; 1 µM) | relative viability (kb NB 142-70; 3.162 µM) | relative viability (kb NB 142-70 + Alpelisib; first compound 0.1 µM) | relative viability (kb NB 142-70 + Alpelisib; first compound 1 µM) | relative viability (kb NB 142-70 + Alpelisib; first compound 3.162 µM) | relative viability ([1]; first compound 0.02 µM) | relative viability ([1]; first compound 0.06325 µM) | relative viability ([1]; first compound 0.2 µM) | relative viability ([1]; first compound 0.6325 µM) | relative viability ([1]; first compound 2 µM) | relative viability ([2]; first compound 0.02 µM) | relative viability ([2]; first compound 0.06325 µM) | relative viability ([2]; first compound 0.2 µM) | relative viability ([2]; first compound 0.6325 µM) | relative viability ([2]; first compound 2 µM) |
| --- | --- | --- | --- | --- | --- | --- | --- | --- | --- | --- | --- | --- | --- | --- | --- | --- |
| NCI-H520 | 0.985 | 0.884 | 0.544 | 0.728 | 0.961 | 0.513 | 0.852 | 0.831 | 0.677 | 0.725 | 0.917 | 0.787 | 1.09 | 0.889 | 0.687 | 0.694 |
| NCI-H596 | 1.02 | 1.1 | 0.981 | 0.454 | 0.483 | 0.347 | 0.956 | 0.796 | 0.724 | 0.9 | 0.885 | 1 | 1.12 | 1.01 | 1.05 | 0.943 |
| NCI-H647 | 1.01 | 1.03 | 0.99 | 1.1 | 1.43 | 0.698 | 1.23 | 1.32 | 1.26 | 1.12 | 1.12 | 1.17 | 1.14 | 1.13 | 0.976 | 0.747 |
| NCI-H650 | 1.02 | 0.906 | 0.825 | 1.13 | 1.19 | 0.942 | 1.04 | 1.07 | 1.02 | 1.01 | 1.09 | 0.728 | 0.809 | 0.72 | 0.653 | 0.802 |
| NCI-H661 | 0.969 | 0.934 | 0.919 | 0.812 | 0.526 | 0.613 | 0.985 | 0.985 | 1.04 | 0.974 | 1.07 | 1.16 | 0.905 | 1.11 | – | 1.01 |
| NCI-H727 | 1.09 | 1.13 | 1.02 | 0.65 | 0.72 | 0.495 | 0.912 | 0.92 | 1.21 | 1.07 | 1.04 | 1.03 | 0.816 | 0.897 | 0.787 | 0.899 |
| NCI-H838 | 0.965 | 0.961 | 0.963 | 1.02 | 1.06 | 0.91 | 1.1 | 1.02 | 1.12 | 1 | 0.969 | 0.856 | 0.903 | 0.879 | 0.813 | 0.761 |
| NCI-H1299 | 0.977 | 1.06 | 1.1 | 1.02 | 1.11 | 1.17 | 1.16 | 1.12 | 1.14 | 1.04 | 1.15 | 0.97 | 0.969 | 0.991 | 0.944 | 1 |
| NCI-H1355 | 1.02 | 0.885 | 1.01 | 0.924 | 0.86 | 0.822 | 0.954 | 1.03 | 1.04 | 1.02 | 0.981 | 0.959 | 1.2 | 1.03 | 0.946 | 1.07 |
| NCI-H1437 | 0.986 | 1 | 0.975 | 1.01 | 0.999 | 0.875 | 1.26 | 1.31 | 1.25 | 1.28 | 1.22 | 0.946 | 0.85 | 0.964 | 0.94 | 0.894 |
| NCI-H1563 | 1.04 | 1.02 | 1 | 0.963 | 0.967 | 0.932 | 0.958 | 1.04 | 0.94 | 0.984 | 0.971 | 0.887 | 0.91 | 0.881 | 0.835 | 0.997 |
| NCI-H1651 | 1.02 | 0.975 | 0.821 | 0.938 | 0.934 | 0.364 | 0.758 | 0.823 | 0.805 | 0.789 | 0.803 | 0.803 | 0.853 | 0.875 | 0.881 | 0.952 |
| NCI-H1666 | 0.951 | 1.01 | 0.922 | 0.805 | 1.01 | 0.632 | 0.975 | 1.01 | 0.998 | 0.963 | 0.932 | 1 | 0.904 | 1.16 | 0.854 | 0.982 |
| NCI-H1703 | 0.959 | 0.973 | 1.23 | 0.391 | 0.362 | 0.444 | 0.32 | 0.289 | 0.412 | 0.323 | 0.34 | 0.593 | 0.657 | 0.924 | 0.621 | 0.951 |
| NCI-H1734 | 1.04 | 0.774 | 0.517 | 0.659 | 0.607 | 0.46 | 0.795 | 0.875 | 0.919 | 0.766 | 0.9 | 0.801 | 0.611 | 0.788 | 0.739 | 0.683 |
| NCI-H1755 | 0.988 | 0.986 | 1.02 | 0.968 | 0.915 | 0.929 | 0.928 | 0.882 | 0.947 | 0.921 | 0.905 | 0.955 | 0.863 | 0.904 | 0.891 | 0.862 |
| NCI-H1915 | 1.04 | 0.978 | 0.742 | 1.07 | 1.08 | 0.648 | 1.12 | 1.12 | 1.09 | 1.06 | 1.11 | 0.864 | 0.873 | 0.871 | 0.83 | 0.898 |
| NCI-H1944 | 1.08 | 0.978 | 1.07 | 0.874 | 0.817 | 0.853 | 0.795 | 0.841 | 0.827 | 0.888 | 1.01 | 1.04 | 1.05 | 1.11 | 1.06 | 1.13 |
